Laboratory results: ChEMBL document CHEMBL1125174, “Conformationally restricted polysubstituted biphenyl derivatives with angiotensin II receptors antagonist properties” (J Med Chem, 1991)

Species on record: Oryctolagus cuniculus
Assay: The compound was tested for antagonism of AII-induced contraction of rabbit aorta rings.
Assay type: functional
Details: read-out: pA2 (converted)

CCCCc1nc(Cl)c(CO)n1Cc1ccc(-c2ccccc2C(=O)O)cc1
Kb: 79.4 nM

CCCCc1nc(CO)c(Cl)n1Cc1cc(OC)c(-c2ccccc2C(=O)O)c(OC)c1
Kb: 3160 nM
